Source: patent US8283439B2, “Recombinant fragments and synthetic peptides of 17-kDa polypeptide useful in detecting Bartonella henselae” (Medical Diagnostic Laboratories L.L.C., priority 2008, dated 2012)
Entries after “also recorded” stand apart in the source; their conditions may differ.

B1: 17-kDa Fragment 3: His-tagged recombinant fragment of 17-kDa protein, aa 77-148, glutamine instead of arginine at position 147 (protein, listed as Bartonella henselae)
chain: KTKPEQLQALQIELTLLQAQLQADTLKIQSLAMIQAKDTKTKEELREEQTQKKHEDLQKQLKEKLEKSDVQL
modifications: His tag

Key:
[1] = tested on: antibodies present in IFA sero-positive sera from patients infected with Bartonella henselae (IgG); test: IgG ELISA with synthetic polypeptides of 17-kDa protein as coating antigen; format: binding, human; conditions: for antibody binding activity in ELISA: IFA sero-positive sera, mostly relative to peptide 3C
Description: A panel of 47 human sera, including 27 IFA positive and 20 WA negative sera, was used. ROC analysis was used to analysis the binding activity via OD450nm (FIGS. 19 and 21). AUCs for peptide 3C, 3B, 3D, and 3E were 0.9, 0.5, 0.5, and 0.8 respectively (FIGS. 19 and 21). […] Thus, the antibody recognition site seems to be present on peptide 3C (but not peptides 3B and 3D).
We adopted an IgG ELISA assay and evaluated the binding activity of the modified peptides towards IgG. The ELISA procedure involves: (i) coating 96-well micro-titer plates with modified peptides at varying concentrations (e.g., 0.2-5 μg/ml) at 4° C. overnight; (ii) adding 5% skim milk to block non-specific binding; (iii) adding patients' sera to allow formation of antibody-antigen complex; (iv) detecting the antibody-antigen complex. IFA sero-positive sera served as positive controls and IFA sero-negative sera served as negative controls. Detection of antibody-antigen complex was performed with the use of horseradish peroxidase.
A panel of 47 human sera was used in an ELISA assay to evaluate the sensitivity and specificity for synthetic polypeptides of 17-kDa protein. This panel contains 27 IFA positive sera and 20 IFA negative sera. Synthetic polypeptides used include amino acid substitution (Peptide 3C-CS3), addition (Peptide 3C-Ext2), and deletion (Peptide 3C-Del). Antibody binding was reflected by OD450nm, which was analyzed by Interactive dot diagram in statistic software MedCalc.

[2] = tested on: antibodies against Bartonella henselae in IFA sero-positive patient sera (IgG); test: IgG ELISA with recombinant 17-kDa protein or Fragment 3 as coating antigen; format: binding, human
Procedure: In the ELISA assay, purified Fragment 3 protein was diluted in coating buffer to a final concentration of 250 ng/ml. Antigen was adhered to 96-well plate by applying 100 μl this solution per well and incubated at 4° C. for 18 hours. Uncoated antigen was removed by washing the plate three times with PBST wash buffer. After washing, post-coating was done with 300 μl blocking reagent General Blocker BB1 in each well for 1 hour at 22° C. Primary polyclonal antibody from 100 μl serum in 1:100 sample dilution buffer each well was allowed to react with coated antigen for 1 hour at 22° C. After five wash steps with PBST wash buffer, each well was incubated with […] peroxidase conjugated goat anti-human IgG (KPL, 1:20,000 from 1 mg/ml stock in sample dilute buffer) for 30 minutes at 22° C. The excess amount of secondary antibody was also removed by five wash steps with PBST wash buffer. The reaction were visualized by adding 100 μl substrate 3,3′5,5′-Tetramethylbenzidine solution and incubated at 22° C. for 15 minutes. The reaction was terminated by adding 100 μl 0.5 M H2SO4 per well before taking OD450nm measurement. Receiver operating characteristic curve (ROC) analysis was calculated with associated 95% confidence interval using a binomial distribution with the MedCalc program.
In this series of studies, a panel containing 12 IFA positive serum samples and 6 IFA negative serum samples was evaluated by ELISA using the respective antigen as the coating antigen. FIG. 15 presents the results of this ELISA analysis. […] Neither antigen bound antibody in sample #3508.
To further characterize the comparative abilities of recombinant Fragment 3 and the full length protein to bind antibodies to Bartonella henselae, a broader panel of 47 serum samples (27 IFA positive serum samples and 20 IFA negative serum samples) was analyzed by ELISA. The raw data was analyzed with ROC curve comparison in statistic software MedCalc.
A panel of 47 human sera was used in an IgG ELISA to evaluate the sensitivity and specificity for Fragment 3 mutants. The raw data was analyzed by interactive dot diagram assay (FIGS. 31 and 32).
Purified protein was diluted in coating buffer to a final concentration 250 ng/ml. Antigen was adhered to 96-well plate by applying 100 μl above prepared solution per well and incubate at 4° C. for 18 hours. We removed uncoated antigen by washing plate three times with PBST wash buffer. After washing, post-coating was done with 300 μl blocking reagent General Blocker BB1 each well for 1 hour at 22° C. Then primary polyclonal antibody from 100 μl serum in 1:100 sample dilution buffer each well was allowed to react with coated antigen for 1 hour at 22° C. After five times washing with PBST wash buffer, we incubated each well with 100 μl peroxidase conjugated goat anti-human IgG (KPL, 1:20,000 from 1 mg/ml stock in sample dilute buffer) for 30 minutes at 22° C. The excess amount of secondary antibody was also removed by five times washing with PBST wash buffer. The reaction were visualized by adding 100 μl substrate 3,3′5,5′-Tetramethylbenzidine Solution and incubated at 22° C. for 15 minutes. In the end, we terminated reaction with 100 μl 0.5 M H2SO4 per well before taking OD450nm measurement. Receiver operating characteristic curve (ROC) analysis was calculated with associated 95% confidence interval using a binomial distribution with MedCalc program.

[3] = panel study, 47 human sera (27 IFA positive, 20 IFA negative), interactive dot diagram
[4] = ELISA, panel of 47 human sera (27 IFA positive, 20 IFA negative), ROC analysis of OD450nm

| Molecule | antibody binding activity in ELISA [1] | sensitivity [1, 3] | specificity [1, 3] | other results |
| --- | --- | --- | --- | --- |
| LKLELELVQDSDKQEKRK (listed as Bartonella henselae) [Peptide 3C-RD, peptide 3C with substitution of the entire 18 AA] | no binding activity; also recorded: fail to bind antibody | ~11% | 0% |  |
| EDIQKQLKEKLEKSDVRL (listed as Bartonella henselae) [Peptide 3C-CS2, peptide 3C with conservative substitution L to I] | same binding activity |  |  |  |
| EKLEKSDVRL (listed as Bartonella henselae) [Peptide 3E, synthetic polypeptide, aa 139-148 of 17-kDa protein] | not sufficient to complete antibody binding |  |  | AUC [1, 4]: 0.8; sensitivity [1, 4]: 40.7%; specificity [1, 4]: 88.2%; antibody binding activity in ELISA ([1]; listed as SEQ ID NO: 33): by itself insufficient to render the ability to bind antibodies present in IFA positive sera |
| QKKHEDLQKQLKEKLEKSDVRL (listed as Bartonella henselae) [Peptide 3C-Ext1, peptide 3C with addition of 4 AA at N-terminus] | same binding activity as compared to that of peptide 3C |  |  |  |
| DDLQKQLKEKLEKSDVRL (listed as Bartonella henselae) [Peptide 3C-CS1, peptide 3C with conservative substitution E to D] | identical binding activity as compared to that of peptide 3C |  |  |  |
| EEQTQKKHEDLQKQLK (listed as Bartonella henselae) [Peptide 3D, synthetic polypeptide, aa 123-138 of 17-kDa protein] |  |  |  | AUC [1, 4]: 0.5; sensitivity [1, 4]: 85.2%; specificity [1, 4]: 25.0% |
| QAKDTKTKEELREEQTQK (listed as Bartonella henselae) [Peptide 3B, synthetic polypeptide, aa 111-128 of 17-kDa protein] |  |  |  | AUC [1, 4]: 0.5; sensitivity [1, 4]: 33.3%; specificity [1, 4]: 90.0% |
| EDLQKQLKEKLEKSDVRL (listed as Bartonella henselae) [Peptide 3C, synthetic polypeptide, aa 131-148 of 17-kDa protein] | possesses the antibody binding activity; also recorded: dose-dependent increase in binding towards sero-positive serum |  |  | AUC [1, 4]: 0.9; sensitivity [1, 4]: 77.8%; specificity [1, 4]: 88.2%; antibody binding activity in ELISA ([1]; listed as SEQ ID NO: 22): possesses the ability to bind to antibodies present in IFA positive sera |
| EDLQKQVKEKLEKSDVRL (listed as Bartonella henselae) [Peptide 3C-CS3, peptide 3C with conservative substitution L to V] | same binding activity; also recorded: identical binding activity as compared to that of peptide 3C | ~80% | ~90% |  |
| EDLQKQLKSDKEVKLRLE (listed as Bartonella henselae) [Peptide 3C-RD2, peptide 3C with substitution of the last 10 AA at C-terminus] | completed abrogated the binding activity; also recorded: fail to bind antibody | ~11% | 0% |  |
| EQTQKKHEDLQKQLKEKLEKSDVRL (listed as Bartonella henselae) [Peptide 3C-Ext2, peptide 3C with addition of 7 AA at N-terminus] | same binding activity as compared to that of peptide 3C; also recorded: identical binding activity as compared to that of peptide 3C | ~80% | ~90% |  |
| ED_QKQLKEKLEKSDVRL (EDQKQLKEKLEKSDVRL; listed as Bartonella henselae) [Peptide 3C-Del, peptide 3C with leucine at third position from N-terminus deleted] | did not alter the binding activity; also recorded: identical binding activity as compared to that of peptide 3C | ~80% | ~90% |  |
| LKQDEQKLEKLEKSDVRL (listed as Bartonella henselae) [Peptide 3C-RD1, peptide 3C with substitution of the first 8 AA at N-terminus] | same binding activity as compared to that of peptide 3C |  |  |  |
| B1 |  |  |  | area under ROC curve (AUC) ([2]; IgG ELISA, panel of 47 serum samples (27 IFA positive, 20 IFA negative), MedCalc ROC): 0.897; ability to bind antibodies in IgG ELISA ([2]; coating antigen, IFA positive vs IFA negative sera): binds to antibodies against Bartonella henselae; also recorded: identical, if not better, ability to bind antibodies when compared with the full-length 17-kDa protein; also recorded: better sensitivity in detecting positive serum than the full length antigen; reaction with IFA negative serum samples ([2]; panel of 12 IFA positive and 6 IFA negative serum samples): Neither antigen reacted with any of the IFA negative serum samples |
